Experimental data published in patent US20240189311A1, “Combination Therapy of Obicetrapib and Ezetimibe for Use in Statin Intolerant Patients Suffering from Hyperlipidemia or Mixed Dyslipidaemia” (NEWAMSTERDAM PHARMA B.V., priority 2021, published 2024).

Key:
apolipoprotein B (ApoB) = assay: Phase 2 study of obicetrapib and ezetimibe in mild dyslipidaemia: ApoB; type: in vivo, human
From the text: (§1) Study drugs will be administered by the participant orally and once daily on Days 1 through 57. Study drugs should be administered at approximately the same time each morning, with food. On days with visits scheduled, study drugs should be administered with food following all fasted blood samples. If a participant forgets to take study drug on a given day, they should take the next dose as normal and should not take a double dose to make up for the forgotten dose.
(§2) Up to 2 weeks after the Screening Visit, participants will return to the site on Day 1 (Visit 2) to be randomized and begin treatment. Approximately 100 eligible participants (25 participants per treatment group) will be randomized in a 1:1:1:1 ratio to 1 of the following treatment groups: • Combination therapy: 5 mg obicetrapib+10 mg ezetimibe; • Obicetrapib monotherapy: 5 mg obicetrapib+placebo ezetimibe; • Ezetimibe monotherapy: placebo obicetrapib+10 mg ezetimibe; or • Placebo: placebo obicetrapib+placebo ezetimibe.
Similar MMRM models were developed to examine the percent change from Day 1 to Day 57 in LDL-C (for other pairwise treatment group comparisons beside the analysis specified for the primary efficacy endpoint, using the Friedewald formula) or ApoB. In order to maintain the overall Type 1 error rate, the secondary efficacy endpoints were tested sequentially at the 0.05 significance level according to the pre-specified order of hierarchy. This applied to the following analyses: • Percent change from Day 1 to Day 57 in LDL-C for the obicetrapib monotherapy group compared to the placebo group; • Percent change from Day 1 to Day 57 in ApoB for the combination therapy group compared to the placebo group; • Percent change from Day 1 to Day 57 in ApoB for the obicetrapib monotherapy group compared to the placebo group; • Percent change from Day 1 to Day 57 in LDL-C for combination therapy group compared to the ezetimibe monotherapy group; • Percent change from Day 1 to Day 57 in LDL-C for the obicetrapib monotherapy group compared to the ezetimibe monotherapy group; • Percent change from Day 1 to Day 57 in LDL-C, for the ezetimibe monotherapy group compared to the placebo group; and • Percent change from Day 1 to Day 57 in ApoB for the combination therapy group compared to the ezetimibe monotherapy group.

LDL-C = details: cited from earlier work
[1] = test system: high-density lipoprotein cholesterol (HDL-C); assay: Phase 2 study: HDL-C; type: in vivo, human; details: Day 57
Protocol: as §2
(§3) Similar MMRM models were used for the exploratory efficacy endpoints. The proportion of participants at Day 57 that achieved LDL-C<2.6 mmol/L (<100 mg/dL), LDL-C<1.8 mmol/L (<70 mg/dL), and LDL-C<1.3 mmol/L (<50 mg/dL) were examined through Logistic Regression Models for binary variables with covariates of the treatment groups and the baseline variable.

[2] = Phase 2 study: pharmacokinetics of obicetrapib; type: in vivo, human; details: by 8 weeks after long-term daily dosing
From the text: Plasma obicetrapib concentrations will be summarized with descriptive statistics based on the PK Population. Exploration of any relationships with obicetrapib exposure will be performed, as appropriate.
The PK Population included all participants in the mITT Population who had sufficient blood samples collected for valid estimation of PK parameters.

apolipoprotein E (ApoE) = assay: Phase 2 study: ApoE; type: in vivo, human; details: Day 57
Protocol: as §2, §3

[3] = test system: low-density lipoprotein cholesterol (LDL-C); assay: Phase 2 study of obicetrapib and ezetimibe in mild dyslipidaemia: LDL-C by Friedewald formula; type: in vivo, human
From the text: as §1, §2
LDL-C level was collected using the following 2 approaches: • 1. At each scheduled visit, LDL-C level was calculated using the Friedewald formula; and • 2. In addition, at baseline (Day 1) and at the end of the 8-week Treatment Period (Day 57), LDL-C was measured for all participants by preparative ultracentrifugation (PUC). Primary Efficacy Endpoint Primary analysis
The primary efficacy analysis of the percent change from Day 1 to Day 57 in LDL-C was performed using a mixed model for repeated measures (MMRM) approach. The analysis included fixed effects for treatment, visit, and treatment-by-visit interaction, along with a covariate of the baseline value as a continuous covariate. Randomization was stratified by categories of LDL-C value (<3.5 mmol/L [<135 mg/dL] or >3.5 mmol/L [≥135 mg/dL]) only to ensure similar distribution of LDL-C across all treatment groups; however, the MMRM model included the original scale of the LDL-C value as a continuous covariate. The Restricted Maximum Likelihood estimation approach was used with an unstructured covariance matrix. The least squares (LS) means, standard errors, and 2-sided 95% confidence intervals (CIs) for each treatment group, for the pairwise comparisons of the combination therapy, obicetrapib monotherapy, and ezetimibe monotherapy to placebo, and for the pairwise comparisons of combination therapy and obicetrapib monotherapy versus ezetimibe monotherapy are provided. The treatment comparison was performed using a 2-sided test at the α=0.05 level of significance.
as §3
This study was a placebo-controlled, double-blind, randomized Phase 2 study in participants with mild dyslipidemia to evaluate the efficacy, safety, and tolerability of obicetrapib and ezetimibe combination therapy. The primary efficacy endpoint was percent change from Day 1 to Day 57 in LDL-C for the obicetrapib 5 mg+ezetimibe 10 mg group compared to the placebo group.

[4] = test system: non-high-density lipoprotein cholesterol (non-HDL-C); assay: Phase 2 study: non-HDL-C; type: in vivo, human; details: Day 57
Protocol: as §2, §3

[5] = Phase 2 study: safety and tolerability (adverse events); type: in vivo, human
From the text: The Safety Population included all participants who received at least 1 dose of any study drug. Treatment classification was based on the actual treatment received. The Safety Population was the primary population used for the safety analyses.
The Safety Population was the primary population for the safety analyses. All safety endpoints are summarized descriptively. No statistical inference was applied to the safety endpoints.
AEs were categorized by primary system organ class (SOC) and preferred term (PT) as coded using the Medical Dictionary for Regulatory Activities (version 23.0) category designations. Summaries of AEs, including the count and percentage of participants who experienced an AE, are provided.
An overview of treatment-emergent adverse events (TEAEs) is provided, including counts and percentages of participants (and event counts).
Listings are presented specifically for TEAEs, treatment-emergent serious adverse events (TESAEs), and TEAEs leading to discontinuation of study drug.

CETP = biological target: T1, CETP (Homo sapiens, UniProt P11597); details: 5 mg obicetrapib dose; healthy subjects and patients; multiple dose; cited from earlier work
T1 construct: from tissue; host or cells: plasma of the dosed clinical-study subjects (endogenous CETP)
T1 sequence (P11597 18-493): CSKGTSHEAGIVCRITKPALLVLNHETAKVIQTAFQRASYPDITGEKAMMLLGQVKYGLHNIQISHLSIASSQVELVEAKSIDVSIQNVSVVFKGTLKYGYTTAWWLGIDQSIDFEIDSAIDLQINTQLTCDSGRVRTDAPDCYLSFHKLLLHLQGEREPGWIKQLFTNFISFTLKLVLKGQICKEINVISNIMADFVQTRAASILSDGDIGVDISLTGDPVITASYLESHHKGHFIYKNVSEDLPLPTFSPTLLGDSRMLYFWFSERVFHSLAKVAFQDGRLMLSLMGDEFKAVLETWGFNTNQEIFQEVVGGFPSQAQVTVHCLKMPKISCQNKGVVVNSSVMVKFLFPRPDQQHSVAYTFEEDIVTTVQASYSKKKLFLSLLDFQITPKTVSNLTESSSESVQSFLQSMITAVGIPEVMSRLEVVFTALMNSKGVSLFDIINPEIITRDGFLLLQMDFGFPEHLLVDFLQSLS

HDL-C = details: cited from earlier work
[6] = mITT population, mild dyslipidaemia, oral once daily, Day 57
[7] = mITT population, oral once daily, baseline to Day 57
[8] = previous multiple-dose clinical studies, 5 mg obicetrapib dose, healthy subjects and patients

Elimination of obicetrapib (in words) [2]: almost complete elimination
SMILES: CCOC(=O)N1c2ccc(C(F)(F)F)cc2[C@@H](N(Cc2cc(C(F)(F)F)cc(C(F)(F)F)c2)c2ncc(OCCCC(=O)O)cn2)C[C@H]1C [Obicetrapib 5 mg]
Percent change from baseline in ApoB compared to placebo (in words) (apolipoprotein B (ApoB); Day 57, compared to placebo): significant reductions
ApoB at Day 57, mean (apolipoprotein B (ApoB); [6]): 78.3 mg/dL
ApoB at Day 57, median (apolipoprotein B (ApoB); [6]): 75.0 mg/dL
Change from baseline to Day 57 in ApoB, mean (apolipoprotein B (ApoB); [7]): -22.6 mg/dL
Change from baseline to Day 57 in ApoB, median (apolipoprotein B (ApoB); [7]): -24.0 mg/dL
Percent change from baseline to Day 57 in ApoB, mean (apolipoprotein B (ApoB); [7]): −22.15%
Percent change from baseline to Day 57 in ApoB, median (apolipoprotein B (ApoB); [7]): −23.50%
Effect on LDL cholesterol concentrations (in words) (LDL-C; Phase II trial TULIP, 10 mg and 5 mg obicetrapib as monotherapy): able to reduce LDL cholesterol concentrations
Effect on LDL-C levels (in words) (LDL-C; [8]): decreased
Percent change from baseline in HDL-C compared to placebo (in words) [1]: significant increases
Percent change from baseline in ApoE compared to placebo (in words) (apolipoprotein E (ApoE)): significant increases
Number of participants that achieved LDL-C<70 mg/dL by Friedewald formula ([3]; Day 57): 7 participants
Number of participants that achieved LDL-C<100 mg/dL by Friedewald formula ([3]; Day 57): 16 participants
Percentage of participants that achieved LDL-C<70 mg/dL by Friedewald formula ([3]; Day 57): 25.0%
Percentage of participants that achieved LDL-C<100 mg/dL by Friedewald formula ([3]; Day 57): 57.1%
LDL-C by Friedewald formula at Day 57, mean [3, 6]: 87.0 mg/dL
LDL-C by Friedewald formula at Day 57, median [3, 6]: 87.0 mg/dL
Change from baseline to Day 57 in LDL-C by Friedewald formula, mean [3, 7]: -39.5 mg/dL
Change from baseline to Day 57 in LDL-C by Friedewald formula, median [3, 7]: -41.0 mg/dL
Percent change from baseline to Day 57 in LDL-C by Friedewald formula, mean [3, 7]: −31.88%
Percent change from baseline to Day 57 in LDL-C by Friedewald formula, median [3, 7]: −34.40%
Percent change from baseline in non-HDL-C compared to placebo (in words) [4]: significant reductions
Safety and tolerability (in words) ([5]; 8 weeks of treatment, oral once daily): generally safe and well tolerated
Participants who experienced at least 1 TEAE, number ([5]; Safety Population): 4 participants
Participants who experienced at least 1 TEAE, percentage ([5]; Safety Population): 14.3%
Participants who experienced at least 1 study drug-related TEAE, number ([5]; Safety Population): 1 participants
Participants who experienced at least 1 study drug-related TEAE, percentage ([5]; Safety Population): 3.6%
Participants with a TEAE with a maximum severity of moderate, number ([5]; Safety Population): 1 participants
Participants with a TEAE with a maximum severity of moderate, percentage ([5]; Safety Population): 3.6%
CETP activity and concentrations (in words) (CETP): effectively reduced
Effect on HDL cholesterol concentration (in words) (HDL-C; Phase II trial TULIP, mono-therapy and in combination with statins): increased considerably
Effect on HDL-C levels (in words) (HDL-C; [8]): increased
